Data as given in the supplement of paper PMC10307832.

How the values were obtained:
Test in all cases: relative viability (nuclei count vs DMSO), 5 days (fraction); higher = more cells survive
RO-3306 + Lapatinib = compound: C1=CC2=C(C=CC(=C2)C=C3C(=O)NC(=NCC4=CC=CS4)S3)N=C1 [RO-3306] + CS(=O)(=O)CCNCc1ccc(-c2ccc3ncnc(Nc4ccc(OCc5cccc(F)c5)c(Cl)c4)c3c2)o1 [Lapatinib] (partner 2 µM)
Summary of the method: (§1)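 One day after seeding in 1536-well plates, lung cancer cell lines were dosed by pin tool. Dosing was either single-drug or a fixed anchor-drug dose plus five library-drug doses (not always all listed) in √10 steps. After 5 days, nuclei were stained in one fix-and-stain step and counted on 4× images, and relative viability is the nuclei count of treated wells over that of vehicle wells, given as the median of duplicate plates.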

[1] = compound: O=S(=O)(c1ccccc1)N(CC(F)(F)F)c1ccc(C(O)(C(F)(F)F)C(F)(F)F)cc1 + CC(=O)Nc1cccc(-n2c(=O)n(C3CC3)c(=O)c3c(Nc4ccc(I)cc4F)n(C)c(=O)c(C)c32)c1 [Trametinib] (partner 0.02 µM)
Summary of the method: as §1

[2] = compound: O=S(=O)(c1ccccc1)N(CC(F)(F)F)c1ccc(C(O)(C(F)(F)F)C(F)(F)F)cc1 + CS(=O)(=O)N1CCN(Cc2cc3nc(-c4cccc5[nH]ncc45)nc(N4CCOCC4)c3s2)CC1 [Pictilisib] (partner 1 µM)
Summary of the method: as §1

[3] = compound: O=S(=O)(c1ccccc1)N(CC(F)(F)F)c1ccc(C(O)(C(F)(F)F)C(F)(F)F)cc1 + C[C@@H](Oc1cc(-c2cnn(C3CCNCC3)c2)cnc1N)c1c(Cl)ccc(F)c1Cl [Crizotinib] (partner 1 µM)
Summary of the method: as §1

[4] = compound: O=S(=O)(c1ccccc1)N(CC(F)(F)F)c1ccc(C(O)(C(F)(F)F)C(F)(F)F)cc1 + Nc1nc2[nH]cc(CCc3ccc(C(=O)N[C@@H](CCC(=O)O)C(=O)O)cc3)c2c(=O)[nH]1 [Pemetrexed] (partner 0.2 µM)
Summary of the method: as §1

[5] = compound: O=S(=O)(c1ccccc1)N(CC(F)(F)F)c1ccc(C(O)(C(F)(F)F)C(F)(F)F)cc1 + O=C(CCCCCCC(=O)Nc1ccccc1)NO [Vorinostat] (partner 1 µM)
Summary of the method: as §1

Cell Line | relative viability (RO-3306 + Lapatinib; first compound 0.01 µM) | relative viability (RO-3306 + Lapatinib; first compound 0.03162 µM) | relative viability (RO-3306 + Lapatinib; first compound 0.1 µM) | relative viability (RO-3306 + Lapatinib; first compound 0.3162 µM) | relative viability (RO-3306 + Lapatinib; first compound 1 µM) | relative viability ([1]; first compound 2.53 µM) | relative viability ([1]; first compound 8 µM) | relative viability ([2]; first compound 0.8 µM) | relative viability ([2]; first compound 2.53 µM) | relative viability ([2]; first compound 8 µM) | relative viability ([3]; first compound 0.8 µM) | relative viability ([3]; first compound 2.53 µM) | relative viability ([3]; first compound 8 µM) | relative viability ([4]; first compound 2.53 µM) | relative viability ([4]; first compound 8 µM) | relative viability ([5]; first compound 2.53 µM) | relative viability ([5]; first compound 8 µM) | relative viability ([1]; first compound 0.8 µM) | relative viability ([4]; first compound 0.8 µM) | relative viability ([5]; first compound 0.8 µM)
NCI-H358 | 0.5 | 0.431 | 0.39 | 0.495 | 0.425 | 0.118 | 0.118 | 0.274 | 0.28 | 0.286 | 0.606 | 0.515 | 0.512 | 0.177 | 0.181 | 0.581 | 0.541 | – | – | –
EKVX | 0.173 | 0.187 | 0.237 | 0.192 | 0.148 | 0.272 | 0.324 | 0.367 | 0.363 | 0.303 | 1.09 | 0.85 | 0.898 | 0.362 | 0.292 | 0.513 | 0.535 | 0.3 | 0.388 | 0.697
NCI-H1755 | 1.2 | 1.04 | 1.03 | 1.04 | 1.01 | 0.661 | 0.815 | 0.376 | 0.361 | 0.382 | 0.96 | 0.774 | 0.782 | 0.422 | 0.436 | 0.679 | 0.592 | 0.769 | 0.417 | 0.907
NCI-H460 | 1.64 | – | 0.958 | 1.18 | 1.25 | 0.109 | 0.147 | 0.436 | 0.333 | 0.362 | 0.824 | 1.03 | 1 | 0.0599 | 0.0652 | 0.673 | 0.618 | 0.198 | 0.0543 | 0.847
NCI-H2405 | 1.03 | 1.04 | 1.01 | 1.09 | 1.01 | 0.615 | 0.707 | 0.471 | 0.455 | 0.418 | 0.884 | 0.837 | 0.9 | 1.05 | 1.01 | 0.755 | 0.913 | 0.673 | 1.17 | 1.02
LU99A | 1.2 | 0.971 | 0.915 | 0.789 | 0.914 | 0.541 | 0.464 | 0.296 | 0.293 | 0.271 | 0.634 | 0.465 | 0.516 | 0.18 | 0.18 | 0.462 | 0.401 | 0.521 | 0.184 | 0.568
NCI-H2087 | 0.894 | 1.12 | 1.02 | 0.968 | 0.889 | 0.173 | 0.2 | 0.868 | 0.993 | 0.848 | 1.11 | 0.841 | 0.918 | 0.593 | 0.633 | 0.509 | 0.946 | 0.26 | 0.459 | 0.89
SK-MES-1 | 0.449 | 0.472 | 0.444 | 0.505 | 0.471 | 0.573 | 0.59 | 0.25 | 0.235 | 0.271 | 1.02 | 1 | 0.903 | 1 | 0.824 | 1.18 | 0.915 | 0.546 | 1.12 | 1.09
HCC-827 | 0.226 | 0.21 | 0.17 | 0.214 | 0.17 | 0.503 | 0.244 | 1.08 | 1.05 | 1.05 | 0.932 | 0.917 | 0.95 | 0.246 | 0.239 | 0.842 | 0.781 | 0.527 | 0.266 | 0.874
NCI-H520 | 1.01 | 0.638 | 0.806 | 0.734 | 0.754 | 0.603 | 0.701 | 0.31 | 0.258 | 0.387 | 0.939 | 0.767 | 0.855 | 0.908 | 0.795 | 0.678 | 0.77 | 0.861 | 0.757 | 0.847
NCI-H1944 | 0.774 | 0.674 | 0.802 | 0.909 | 0.545 | 0.389 | 0.432 | 0.3 | 0.341 | 0.357 | 1.2 | 1.11 | 1.04 | 0.589 | 0.576 | 0.561 | 0.521 | 0.448 | 0.634 | 0.686
NCI-H2009 | 0.805 | 0.887 | 0.867 | 1.07 | 0.872 | 0.246 | 0.289 | 0.814 | 0.751 | 0.783 | 0.981 | 0.888 | 0.824 | 0.941 | 0.824 | 0.614 | 0.648 | 0.259 | 1.01 | 0.707
RERF-LC-KJ | 0.861 | 0.842 | 0.828 | 0.864 | 0.702 | 0.721 | 0.663 | 0.557 | 0.453 | 0.5 | 0.787 | 0.749 | 0.773 | 0.453 | 0.461 | 0.588 | 0.616 | 0.812 | 0.477 | 0.735
NCI-H650 | 0.867 | 0.728 | 0.774 | 1.06 | 1.01 | 0.983 | 0.782 | 0.913 | 0.842 | 0.885 | 0.737 | 0.559 | 0.782 | 0.992 | 0.851 | 0.36 | 0.359 | 1.1 | 0.841 | 0.368
NCI-H3122 | 1.1 | 1 | 1.02 | 0.997 | 0.827 | 0.143 | 0.221 | 0.477 | 0.447 | 0.416 | 0.271 | 0.253 | 0.259 | 0.19 | 0.201 | 0.948 | 1.19 | 0.166 | 0.209 | 1.01
